Tested on: 966289-007-R4-J1-PDC complex spheroid viability
Test: Anticancer human tumor 966289-007-R4-J1-PDC patient-derived pancreatic adenocarcinoma cell line growth inhibition [GQUAD]
Conditions: for IC50: curve of first compound; for viability, T/C: stronger effect = lower value; active means viability on the fitted dose curve at most 10% of control; inactive means the rest
Text: DNA G-quadruplex Stabilizer Agents in Combinations in Complex Spheroids
A high-throughput screen of multi-cell type tumor spheroids was designed to identify active combinations of DNA G-quadruplex stabilizer agents and targeted small molecules. Complex spheroids include a stromal component modeled by human endothelial cells (HUVEC) and fibroblasts modeled by human mesenchymal stem cells (MSCs). The concentration ranges selected for each drug and investigational agent were based upon clinically achievable concentrations if the clinical Cmax of the agent was known.
Compounds. The drugs and investigational agents: pidnarulex (CX-5461; NSC782164), APTO-253 (NSC789042), BRACO-19 (NSC847499), peposertib (NSC802822), ceralasertib (NSC780249), elimusertib (NSC800525), camonsertib (NSC841442), AZD-1390 (NSC803789), olaparib (NSC753686), talazoparib (NSC767125), ART-558 (NSC835418), sotorasib (NSC818433), MRTX-1133 (NSC836407), SN-38 (NSC673596), topotecan (NSC609699), etoposide (NSC141540), doxorubicin (NSC123127), gemcitabine (NSC613327), 5-fluorouracil (NSC19893), paclitaxel (NSC125973), vemurafenib (NSC761431), panobinostat (NSC761190), R-306465 (JNJ-16241199; NSC773264), adavosertib (NSC754352), TP-3654 (NSC805149), carboplatin (NSC241240), KSQ-4279 (NSC840948), and staurosporine (NSC755774) were obtained from the National Cancer Institute (NCI) Developmental Therapeutics Program Chemical Repository (34). The FDA-approved anticancer drug set is available from the NCI Developmental Therapeutics Program. […] The stock solutions were prepared in dimethyl sulfoxide (DMSO, Sigma-Aldrich, St. Louis, MO, cat. D2650) at 800-fold the tested concentration and stored at -70 degrees C prior to their use. All drugs and investigational agents were tested over a range starting from a high concentration at or near the clinical Cmax and decreasing in half-log increments. If the clinical Cmax for an agent had not been determined, the highest concentration tested was 10 microM.
2.3 Cell Culture. All cells were maintained in an incubator at 37 degrees C and 5% CO2 with 95% humidity. The PDC lines were cultured according to standard operating procedures established by the NCI PDMR. All PDCs were thawed and cultured in Matrigel-coated flasks prepared with a working solution of 1X Ham's F-12 nutrient mix, without supplementation (Invitrogen, cat. 11765054), 100 U/mL penicillin-streptomycin (Invitrogen, cat. 15140122), and 2.5% Matrigel (Corning Inc., cat. 354248) for the first three passages. The 857933-349-R-J2-PDC line was cultured in 6C/Colon 1B media, which includes advanced DMEM/F-12 (Thermo Fisher Scientific, cat. 12634028), 10 mM HEPES (Thermo Fisher Scientific, cat. 15630080), 1X GlutaMAX supplement (Thermo Fisher Scientific, cat. 35050061), 0.1 mg/mL primocin (InvivoGen, cat. ant-pm-2), 10% defined fetal bovine serum, heat inactivated (HyClone Laboratories Inc., cat. SH30070.03HI), 50% L-WRN conditioned media (ATCC, cat. CRL-3276), 1.25 mM N-Acetyl-L-cysteine (Sigma-Aldrich, cat. A9165), 10 mM nicotinamide (Sigma-Aldrich, cat. N0636), 1X B-27 supplement (Thermo Fisher Scientific, cat. 17504044), 1X N-2 supplement (Thermo Fisher Scientific, cat. 17502048), 10 microM Y-27632 dihydrochloride (Tocris Bioscience, cat. 1254), and 50 ng/mL human EGF recombinant protein (Thermo Fisher Scientific, cat. PHG0311). The 485176-168-R4-J1-PDC line was cultured in Panc media, which includes all 6C/Colon 1B media components plus 100 ng/mL human FGF-10 (Thermo Fisher Scientific, cat. 100-26), 500 nM SB-431542 (Selleckchem, cat. S1067), and gastrin (Tocris, cat. 3006).
[…]

[1] = second compound 0.0316 µM, first compound 0.0316 µM
[2] = second compound 0.0316 µM, first compound 0.1 µM
[3] = second compound 0.0316 µM, first compound 0.316 µM
[4] = second compound 0.0316 µM, first compound 1 µM
[5] = second compound 0.0316 µM, first compound 3.16 µM
[6] = second compound 0.0316 µM, first compound 10 µM
[7] = second compound 0.1 µM, first compound 0.0316 µM
[8] = second compound 0.1 µM, first compound 0.1 µM
[9] = second compound 0.1 µM, first compound 0.316 µM
[10] = second compound 0.1 µM, first compound 1 µM
[11] = second compound 0.1 µM, first compound 3.16 µM
[12] = second compound 0.1 µM, first compound 10 µM
[13] = second compound 0.316 µM, first compound 0.0316 µM
[14] = second compound 0.316 µM, first compound 0.1 µM
[15] = second compound 0.316 µM, first compound 0.316 µM
[16] = second compound 0.316 µM, first compound 1 µM
[17] = second compound 0.316 µM, first compound 3.16 µM
[18] = second compound 0.316 µM, first compound 10 µM
[19] = second compound 1 µM, first compound 0.0316 µM
[20] = second compound 1 µM, first compound 0.1 µM
[21] = second compound 1 µM, first compound 0.316 µM
[22] = second compound 1 µM, first compound 1 µM
[23] = second compound 1 µM, first compound 3.16 µM
[24] = second compound 1 µM, first compound 10 µM
[25] = second compound 3.16 µM, first compound 0.0316 µM
[26] = second compound 3.16 µM, first compound 0.1 µM
[27] = second compound 3.16 µM, first compound 0.316 µM
[28] = second compound 3.16 µM, first compound 1 µM
[29] = second compound 3.16 µM, first compound 3.16 µM
[30] = second compound 3.16 µM, first compound 10 µM
[31] = second compound 10 µM, first compound 0.0316 µM
[32] = second compound 10 µM, first compound 0.1 µM
[33] = second compound 10 µM, first compound 0.316 µM
[34] = second compound 10 µM, first compound 1 µM
[35] = second compound 10 µM, first compound 3.16 µM
[36] = second compound 10 µM, first compound 10 µM
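Further: spheroids exposed to the agents for seven days before readout.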
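Wherever viability, T/C is given: percent viability relative to DMSO vehicle control wells taken as 100%.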

C=CCn1c(=O)c2cnc(Nc3ccc(N4CCN(C)CC4)cc3)nc2n1-c1cccc(C(C)(C)O)n1 + Cc1cnc(CNC(=O)c2c(=O)c3ccc(N4CCCN(C)CC4)nc3n3c2sc2ccccc23)cn1
active: viability, T/C [4] 4.74% | viability, T/C [5] 1.95% | viability, T/C [6] 1.13% | viability, T/C [9] 8.35% | viability, T/C [10] 3.91% | viability, T/C [11] 2.06% | viability, T/C [12] 1.35% | viability, T/C [13] 6.91% | viability, T/C [14] 6.09% | viability, T/C [15] 5.08% | viability, T/C [16] 4.04% | viability, T/C [17] 2.11% | viability, T/C [18] 1.81% | viability, T/C [19] 4.63% | viability, T/C [20] 4.25% | viability, T/C [21] 3.87% | viability, T/C [22] 2.82% | viability, T/C [23] 1.24% | viability, T/C [24] 1.48% | viability, T/C [25] 2.9% | viability, T/C [26] 2.75% | viability, T/C [27] 2.77% | viability, T/C [28] 1.24% | viability, T/C [29] 0.09% | viability, T/C [30] 0.38% | viability, T/C [31] 0.06% | viability, T/C [32] 0.11% | viability, T/C [33] 0.12% | viability, T/C [34] 0.28% | viability, T/C [35] 0.46% | viability, T/C [36] 0.13%
< 0.0316 µM: IC50 (second compound 0.1 µM) | IC50 (second compound 0.316 µM) | IC50 (second compound 1 µM) | IC50 (second compound 3.16 µM) | IC50 (second compound 10 µM)
inactive: viability, T/C [1] 105% | viability, T/C [2] 90% | viability, T/C [3] 36.5% | viability, T/C [7] 29.4% | viability, T/C [8] 15.7%
0.236 µM: IC50 (second compound 0.0316 µM)

CC(=O)O[C@H]1C(=O)[C@@]2(C)[C@H]([C@H](OC(=O)c3ccccc3)[C@]3(O)C[C@H](OC(=O)[C@H](O)[C@@H](NC(=O)c4ccccc4)c4ccccc4)C(C)=C1C3(C)C)[C@]1(OC(C)=O)CO[C@@H]1C[C@@H]2O + Cc1cnc(CNC(=O)c2c(=O)c3ccc(N4CCCN(C)CC4)nc3n3c2sc2ccccc23)cn1
< 0.0316 µM: IC50 (second compound 0.0316 µM) | IC50 (second compound 0.1 µM) | IC50 (second compound 0.316 µM) | IC50 (second compound 1 µM) | IC50 (second compound 3.16 µM) | IC50 (second compound 10 µM)
active: viability, T/C [1] 3.55% | viability, T/C [2] 2.41% | viability, T/C [3] 2.38% | viability, T/C [4] 2.61% | viability, T/C [5] 4.35% | viability, T/C [6] 6.47% | viability, T/C [7] 3.6% | viability, T/C [8] 2.87% | viability, T/C [9] 3.34% | viability, T/C [10] 3.44% | viability, T/C [11] 4.23% | viability, T/C [12] 5.96% | viability, T/C [13] 6.14% | viability, T/C [14] 5.32% | viability, T/C [15] 4.53% | viability, T/C [16] 4.82% | viability, T/C [17] 6.03% | viability, T/C [18] 6.11% | viability, T/C [19] 4.85% | viability, T/C [20] 3.94% | viability, T/C [21] 4.08% | viability, T/C [22] 3.75% | viability, T/C [23] 5.24% | viability, T/C [24] 5.33% | viability, T/C [25] 3.56% | viability, T/C [26] 2.87% | viability, T/C [27] 3.36% | viability, T/C [28] 2.75% | viability, T/C [29] 3.86% | viability, T/C [30] 3.56% | viability, T/C [31] 0.08% | viability, T/C [32] 0.11% | viability, T/C [33] 0.1% | viability, T/C [34] 0.09% | viability, T/C [35] 0.1% | viability, T/C [36] 0.11%
